Reference: patent US8741319B2, “Methods and compositions for treating anxiety disorders or symptoms thereof” (Pondera Biotechnologies Inc., priority 2009, dated 2014)
Entries after “also recorded” stand apart in the source; their conditions may differ.

Experiments:
humans = experiment: Hot-water finger-immersion induced pain trials (Example 1); assay type: in vivo, human; details: for undesirable side effects, first phase: 18 subjects, rolipram 50 μg, forskolin 200 mg, magnesium sulfate 2 g/5 g, caffeine 200 mg, each given within two-agent formulations; for side effects / complaints, second phase: 60 subjects, caffeine 50 mg, theophylline 300 mg, ULDN 5 μg, magnesium sulfate 750 mg, alone or combined; for pain thresholds and tolerance as compared to baseline latencies: index finger in 130° F. water, single dose, not blinded as to condition
Method: For these trials, a hot-water finger-immersion pain paradigm was used, measuring both pain threshold and tolerance. The index finger of the non-dominant hand was submerged in 130° F. water, and the time to the experience of pain (threshold) and the need to withdraw (tolerance) were measured. Baseline scores were compared to those obtained under experimental conditions. Experimental conditions were not blinded for this study.
For the preliminary part of this study, 18 subjects (10 males, 8 females; ages 27-86) were given each of the following single-dose formulations on separate days, to determine the best doses for pain reduction and side-effect profiles:
The same induced pain paradigm was used for the second phase of this study. 60 subjects (38 males, 22 females, ages 18-86), including all of the subjects in the first phase of the study, participated in the study. All subjects were administered each of the following formulations in a single dose, on separate days; while 18 of these subjects (10 males, 8 females) were given these formulations using a twice daily administration over the course of 3 consecutive days. The following formulations were administered to each subject to assess the effect of each agent, as compared to baseline, as well as the synergistic impact of co-treatment: […]

males with ADHD = experiment: Attention-Deficit Disorder case studies (Example 10); assay type: in vivo, human; details: for improvement of ADHD behavior and attention: single case studies (males)
Method: To assess the therapeutic benefit of the novel cotreatment formulations of the invention with Attention-Deficit Disorders, three ongoing case studies are being conducted, one focused on the use of stimulants and the other based on “nutriceuticals.”
A person with severe uncontrolled ADHD has had serious problems with their inappropriate behaviors, emotions, and attitudes, both at school and at home, for more than 8 years. […] NAC (600 mg, twice daily) was added to the ongoing medication. […] The young person was able to sit quietly for longer periods of time and was clearly more cooperative and socially appropriate. […] Increased improvement has been observed over the past month, and the cotreatment formulation is being continued.
A person with moderate ADHD has had difficulties paying attention at school and cooperating at home. They have never been given prescription medications for the problem, and behavioral interventions have not been successful. […] Then, NAC (600 mg, twice daily), magnesium sulfate (500 mg, twice daily), and ginkgo biloba (120 mg, once daily) were added to the ALC. […] Progress has been steadily improving, using this novel cotreatment formulation during this 3 week trial, which is ongoing.
A person with severe ADHD has had problems in all aspects of their life due to this disorder. Despite above average intelligence, they were unable to complete high school. After dropping out of school, they were able to earn a GED. Over time, they were unable to hold regular employment. […] They will continue this co-treatment formulation, given its obvious benefits.

Healthy volunteers = experiment: Cold-pressor induced pain study (Example 8A); assay type: in vivo, human; details: 12 subjects, blinded, within-subject
Method: In addition to the hot-water finger immersion studies described above, two Jeio Tech cold-pressor testing units were purchased since this methodology represents the state-of-the art in induced pain research.
Following several preliminary multi-site trials using a wide variety of agents, doses, and formulations, a cold-pressor induced pain study was conducted in order to determine the impact of specific agents on the experience of pain threshold and tolerance. Healthy volunteers were recruited who were not taking any relevant medications or supplements, resulting in a total of 12 subjects (7 men, 5 women; ages 18-86). During the initial phase of this study, the following agents and doses were administered to subjects and pain threshold and tolerance latencies were assessed. […] Subjects were blinded as to each condition. Active agents were compared to each subject's baseline and placebo latencies, using a within-subject design. […]

[1] = tested on: patients in psychotherapy suffering from various Distress Dysfunction conditions; experiment: 10 month trial, agents alone vs combined, 19 psychotherapy patients (Example 5); details: for therapeutic benefits on Distress Dysfunction symptoms: 19 patients, 2 weeks per agent or formulation, agents not identified to patients
Method: To determine the relative benefits of administering agents alone as compared to their combined synergistic benefits, a trial was conducted over a 10 month period with 19 patients in psychotherapy suffering from various Distress Dysfunction conditions, including anxiety, obsessive-compulsive disorders, depression, drug and alcohol addictions, behavioral addictions, psychogenic and neuropathic pain, eating disorders, and sexual dysfunctions.
Over the course of 8 weeks, each patient was administered all of the individual agents. During the next 8 weeks, each patient rotated through the following formulations, each given for a 2 week period: […]
All patients already on an SSRI or SNRI continued on this medication in combination with ULDN.

[2] = tested on: outpatient psychotherapy patients with various forms of Distress Dysfunction; experiment: Clinical case studies, outpatient psychotherapy patients (Example 8B); assay type: in vivo, human; details: 5 or 125 μg once daily within formulations
Method: All treatment was unblinded, and explained as novel formulations for Distress Dysfunction. […] Synergistic Enhancers were often included in the formulations, particularly SSRI and SNRI medications that the patients were typically taking prior to adding the experimental formulations (about 25% of patients). For those patients already on an SSRI or SNRI, the following daily doses were used, once the patient was stabilized on the co-treatment formulation: escitalopram (10 mg, once daily), fluoxetine (20 mg, once daily), citalopram (20 mg, once daily), or venlafaxine (75 mg, once daily). For most patients, this was either the same or lower dose than previously prescribed. If the patient was not already on an SSRI or SNRI, one or more Synergistic Enhancers were added to the formulation for more serious conditions, including 5HTP (50 mg, twice daily), SAMe (200 mg, once daily), PharmaGABA (200 mg, once daily), and tyrosine (500 mg, once daily) (about 18% of patients). Ten pain patients began the treatment program using a prescription narcotic pain medication. […] As an alternative to narcotic pain medications, NSAIDs, especially white willow bark (250 mg, twice daily) were added to the formulation (about 10% of patients). […]

subjects = experiment: Hot-water finger-immersion pain threshold/tolerance, five subjects (Example 4); assay type: in vivo, human; details: separate testing sessions

## C=C[C@@]1(C)CC(=O)[C@]2(O)[C@@]3(C)[C@@H](O)CCC(C)(C)[C@@H]3[C@H](O)[C@H](OC(C)=O)[C@@]2(C)O1 [Forskolin]
humans
  undesirable side effects, first phase: produced mild agitation for several subjects

## COC(=O)C(c1ccccc1)C1CCCCN1 (centres unmarked) [methylphenidate]
Males with ADHD; single case studies
  side effects: produced mild restlessness, sleep difficulties, and reduced appetite; also recorded: several undesirable side-effects, including insomnia, anorexia, and agitation
Males with ADHD
  improvement of ADHD behavior and attention: only modest improvements; also recorded: almost no benefit

## Cn1c(=O)c2c(ncn2C)n(C)c1=O [caffeine]
humans
  undesirable side effects, first phase: produced mild agitation for several subjects
  side effects / complaints, second phase: complained of these symptoms when given these drugs alone
  pain thresholds and tolerance as compared to baseline latencies: trend toward increased pain sensitivity (hyperalgesia)
Healthy volunteers
  pain threshold and tolerance latencies vs baseline and placebo, agents administered alone: tended to result in shorter pain tolerance latencies
[1]; agent administered alone, once daily, 2 weeks
  increased distress symptoms: at least half of the patients reported some degree of increased distress symptoms

## Cn1c(=O)c2[nH]cnc2n(C)c1=O [theophylline]
humans
  side effects / complaints, second phase: complained of these symptoms when given these drugs alone
  pain thresholds and tolerance as compared to baseline latencies: trend toward increased pain sensitivity (hyperalgesia)
Healthy volunteers
  pain threshold and tolerance latencies vs baseline and placebo, agents administered alone: tended to result in shorter pain tolerance latencies

## O=C1CC[C@@]2(O)[C@H]3Cc4ccc(O)c5c4[C@@]2(CCN3CC2CC2)[C@H]1O5 [ULDN, naltrexone]
[2]
  consistency of benefit by naltrexone dose: the benefits from using the relatively higher dose (125 micrograms) were more consistent within and among patients
humans
  side effects / complaints, second phase: had neither benefit nor side effects
[1]; once daily
  therapeutic benefits on Distress Dysfunction symptoms: nearly half of the patients experienced no effect from ULDN alone
[1]; ULDN 5 μg added, patients on Lexapro, Prozac, Paxil or Effexor
  improvement in symptoms in patients on ongoing SSRI or SNRI medication: 10 patients had dramatic improvement in their symptoms

## COc1cccc(C2(O)CCCCC2CN(C)C)c1 (centres unmarked) [Tramadol, tramadol]
Healthy volunteers
  pain threshold and tolerance latencies vs baseline and placebo, agents administered alone: did not generally exhibit analgesia on the cold pressor

## CC(=O)Nc1ccc(O)cc1 [acetaminophen]
subjects
  increase in pain threshold/tolerance (over baseline): in order of greatest pain relief, was (3), then (2) then (1)
Healthy volunteers
  pain threshold and tolerance latencies vs baseline and placebo, agents administered alone: no more effective than placebo in the cold pressor paradigm
[1]; once daily
  therapeutic benefits on Distress Dysfunction symptoms: no therapeutic benefits were reported or observed
[1]; each patient on the formulation that worked best
  maintenance treatment, remaining six months of the study: used effectively by four pain patients
[1]; human, in vivo
  increased distress symptoms: at least half of the patients reported some degree of increased distress symptoms

## CC(=O)Oc1ccccc1C(=O)O [aspirin]
subjects
  increase in pain threshold/tolerance (over baseline): showed no change in pain threshold when administered alone
Healthy volunteers
  pain threshold and tolerance latencies vs baseline and placebo, agents administered alone: no more effective than placebo in the cold pressor paradigm

## COc1ccc2c3c1O[C@H]1C(=O)CC[C@@]4(O)[C@@H](C2)N(C)CC[C@]314 [oxycodone (5 mg), oxycodone]
Healthy volunteers
  pain threshold and tolerance latencies vs baseline and placebo, agents administered alone: consistently showed this effect
Healthy volunteers; listed as lower dose oxycodone
  pain threshold and tolerance latencies vs baseline and placebo, agents administered alone: did not generally exhibit analgesia on the cold pressor

## COc1ccc(C2CNC(=O)C2)cc1OC1CCCC1 (centres unmarked) [Rolipram, rolipram]
humans
  undesirable side effects, first phase: produced a queasy sensation for several of the subjects
humans; one subject took 250 μg of rolipram
  side effects: experienced nausea, vomiting, and diarrhea

## CC(C)Cc1ccc(C(C)C(=O)O)cc1 (centres unmarked) [ibuprophen]
Healthy volunteers
  pain threshold and tolerance latencies vs baseline and placebo, agents administered alone: no more effective than placebo in the cold pressor paradigm

## O=C(Nc1c(Cl)cncc1Cl)c1ccc(OC(F)F)c(OCC2CC2)c1 [roflumilast]
Healthy volunteers
  pain threshold and tolerance latencies vs baseline and placebo, agents administered alone: showed clear hyperalgesic effects when administered alone; also recorded: tended to result in shorter pain tolerance latencies
[1]; once daily
  therapeutic benefits on Distress Dysfunction symptoms: no therapeutic benefits were reported or observed
[1]; human, in vivo
  increased distress symptoms: at least half of the patients reported some degree of increased distress symptoms

## O=S(=O)([O-])[O-].[Mg+2] [magnesium sulfate]
humans
  undesirable side effects, first phase: produced mild queasy feelings for several subjects
  side effects / complaints, second phase: had neither benefit nor side effects

## CC(=O)O[C@H](CC(=O)[O-])C[N+](C)(C)C [acetyl-L-carinitine]
Males with ADHD
  improvement of ADHD behavior and attention: no observable benefits

## N[C@@H](CCC(=O)O)C(=O)O [glutamic acid]
Healthy volunteers
  pain threshold and tolerance latencies vs baseline and placebo, agents administered alone: showed clear hyperalgesic effects when administered alone; also recorded: tended to result in shorter pain tolerance latencies
